Assay in all cases: NCI anticancer screen, dose series, 48 h
In test [1] the test system is A498 renal.
The test system of test [2] is CCRF-CEM leukemia.
Test [3] has as its system HOP-62 NSCLC.
In test [4] the test system is HT29 colon.
Test [5] concerns MALME-3M melanoma.
For test [6], the system named is MDA-MB-435.
The test system of test [7] is MDA-N.
In test [8] the test system is NCI-H23 lung.
Test [9] relates to RPMI-8226 leukemia.
Test [10] concerns SNB-19 CNS.

SMILES strings stand for the structures. Values joined by “and” are separate entries in the source; they are usually repeats but may differ in a detail not shown here. Equal values may be shown once.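 The compound was tested at five concentrations on cells cultured in 96-well plates, with a 48-hour exposure period. GI50 is the concentration that inhibits growth by half. TGI is the concentration that stops growth completely.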

Turning to `COC(=O)C1=C(C(=O)OC)C2CCC1CC2=O` (stereo unspecified), the TGI in [1], in [2], in test [3], in [4], in test [5] and in test [6] was greater than 100 µM throughout. Further, the TGI in test [7], in test [8], in test [9] and in test [10] was greater than 100 µM in each case.
For `O=C(CN1CCOCC1)c1ccc2c(c1)oc(=O)n2CCN1CCCCC1`, the TGI in [1], in [2], in test [3], in test [4], in test [5] and in [6] was greater than 100 µM each time. Besides, the TGI in test [7], in test [8], in [9] and in [10] was greater than 100 µM throughout.
For `FC(F)(F)c1ccc(N=NN2CCCC2)cc1`, the TGI in [1], in test [2], in test [3], in test [4], in test [5] and in test [6] was greater than 100 µM throughout. Moreover, the TGI in [7], in test [8], in test [9] and in test [10] was greater than 100 µM each time.
Regarding `CC(=O)Oc1ccc(C2SCc3nc4ccccc4n32)cc1` (stereo unspecified), the TGI in test [1] was 73.8 µM; in test [2] it was greater than 100 µM; in test [3], greater than 100 µM; in test [4], greater than 100 µM; in test [5], greater than 100 µM; in test [6], 59.4 µM. Further, the TGI was greater than 63.8 µM in test [7], greater than 100 µM in test [8], greater than 100 µM in test [9] and greater than 100 µM in [10].
For `N#C[C@H](c1nc2ccccc2[nH]1)c1nc2ccccc2nc1Cl`, the TGI is greater than 60.6 µM in test [1]; 10.9 µM in [2]; greater than 31.1 µM in [3]; greater than 52.2 µM in [4]; 31.7 µM in [5]; greater than 78 µM in test [6]. The TGI in test [7] is greater than 62.9 µM; in test [8], greater than 54.3 µM; in test [9] it was 36.7 µM; in test [10] it was 38.8 µM.
With `COC(=O)CC(c1ccccc1)C(C#N)(OP1(=O)OC(c2ccccc2)C(C)N1C)c1ccccc1` (stereo unspecified), the TGI in [1], in [2], in test [3], in test [4], in test [5] and in test [6] was greater than 100 µM throughout. For the same compound, the TGI in test [7], in test [8], in test [9] and in [10] was greater than 100 µM each time.
Turning to `COc1ccc(OC)c2c1-c1nnnn1CCC2(C)C`, the TGI in [1], in test [2], in test [3], in test [4], in test [5] and in test [6] was greater than 100 µM each time. Moreover, the TGI in test [7], in [8], in test [9] and in test [10] was greater than 100 µM in each case.
Consider `[B]C(=O)NC(CC(C)C)C(=O)NC1c2ccsc2C(=O)C1O` (stereo unspecified) (tested in a mixture with another compound), for which the TGI in [1], in [2], in test [3], in test [4], in test [5] and in test [6] was greater than 100 µM in each case. The TGI in test [7], in test [8], in [9] and in test [10] was greater than 100 µM throughout.
Take `Cc1nc2ccccc2n1Cc1ccc(NC(=S)NC2CCCCC2)cc1`: the TGI in [1], in [2], in [3], in test [4], in [5] and in [6] was greater than 100 µM throughout. The TGI in test [7] was greater than 100 µM; in test [8], greater than 100 µM; in [9], greater than 66.4 µM; in test [10] it was greater than 100 µM.
As for `COc1ccc(OC/C(N=Cc2cccnc2)=N/NC(=O)c2ccncc2)cc1`, the TGI in test [1] is greater than 100 µM; in [2], greater than 100 µM; in test [3] it was greater than 100 µM; in test [4] it was greater than 100 µM; in [5], greater than 100 µM; in test [6], 82.1 µM. Further, the TGI is 45.6 µM in [7], greater than 100 µM in test [8], greater than 100 µM in [9] and greater than 100 µM in test [10].
In the case of `COc1ccc(/C=C2\NC(=S)N(CN3CCOCC3)C2=O)cc1`, the TGI in [1], in test [2], in test [3], in test [4], in [5] and in test [6] was greater than 100 µM in each case. The TGI in test [7], in [8], in [9] and in [10] was greater than 100 µM in each case.
As to `COC(=O)/C=C/c1cc(OC)c2c(c1)C(C(=O)OC)C(c1ccc(O)c(OC)c1)O2` (stereo unspecified), the TGI in [1] was > 65.4 µM and > 100 µM and 77.3 µM; in [3] it was greater than 100 µM; in test [4] it was 37.8 µM and 26.8 µM and 14.4 µM; in test [5], > 100 µM and 37.4 µM; in test [6] it was 4.49 µM and 1.32 µM; in test [7], 29.1 µM. The TGI is > 100 µM and 13 µM and 56.5 µM in test [8]; 13.6 µM and > 60.8 µM and 15.6 µM in [9]; greater than 100 µM in test [10]. Also, the GI50 in test [2] is 3.4 µM and 3.35 µM and 0.699 µM; in [3] it was 12 µM and 5.12 µM and 7.2 µM; in test [4], 16 µM and 9.17 µM and 3.77 µM; in test [6], 1.13 µM and 0.259 µM; in test [7], 0.204 µM; in test [9], 2.94 µM and 3.93 µM and 1.69 µM. In addition, the GI50 in [10] is 4.15 µM and 4.27 µM and 9.01 µM.
Take `Cc1cn(C2CC(/[N+]([O-])=N\Nc3ccc([N+](=O)[O-])cc3)C(CO)O2)c(=O)[nH]c1=O` (stereo unspecified): the TGI in test [1], in [2], in test [3], in [4], in test [5] and in test [6] was greater than 100 µM in each case. For the same compound, the TGI in test [7], in test [8], in [9] and in test [10] was greater than 100 µM each time.
